Measured values: article PMC10222456, “Application of Physiologically Based Pharmacokinetic Modeling to Predict Drug–Drug Interactions between Elexacaftor/Tezacaftor/Ivacaftor and Tacrolimus in Lung Transplant Recipients” (Pharmaceutics, 2023)
Values joined by “and” are separate entries in the source; they are usually repeats but may differ in a detail not shown here. Identical values can stand only once. Like-named read-outs stand apart in the source and are kept apart here. Blank lines part the entries; values can stand above or below the compound they belong to.

Columns and labels:
CYP3A4 = CYP3A4 (Homo sapiens, UniProt P08684); set-up: method as in Dai et al. [23]; settings: ref Dai et al. [23], cited from earlier work
Sequence of CYP3A4 (P08684 whole entry): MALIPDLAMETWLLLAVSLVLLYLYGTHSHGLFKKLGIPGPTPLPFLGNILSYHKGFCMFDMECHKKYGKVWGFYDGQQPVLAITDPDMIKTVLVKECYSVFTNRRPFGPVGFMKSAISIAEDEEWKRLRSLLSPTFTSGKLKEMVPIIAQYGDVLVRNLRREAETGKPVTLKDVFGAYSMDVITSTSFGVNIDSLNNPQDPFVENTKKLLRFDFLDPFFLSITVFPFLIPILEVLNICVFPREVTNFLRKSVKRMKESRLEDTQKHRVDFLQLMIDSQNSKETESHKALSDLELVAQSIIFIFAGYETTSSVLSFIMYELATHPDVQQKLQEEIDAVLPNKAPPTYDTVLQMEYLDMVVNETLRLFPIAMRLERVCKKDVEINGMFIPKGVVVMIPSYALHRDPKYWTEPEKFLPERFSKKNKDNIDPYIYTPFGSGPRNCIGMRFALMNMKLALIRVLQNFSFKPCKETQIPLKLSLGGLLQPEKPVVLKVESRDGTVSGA

[1] = set-up: method as in Emoto et al. [25]; settings: ref Emoto et al. [25], cited from earlier work
CYP3A [2] = assay: PBPK simulation of clinical DDI studies (model verification); set-up: species or system human
Description: For verification simulations, the dose and schedule of drugs were matched to the design of the corresponding clinical DDI study performed in healthy volunteers.
The input parameters of these CYP3A substrates are available in the compound library of Simcyp version 21: SV-Ethinylestradiol and Sim-Midazolam. […] For the ivacaftor–ethinylestradiol situation, ivacaftor 150 mg was administered orally twice daily for 28 days, while ethinylestradiol oral 0.035 mg was administered once daily for 21 days.
The PBPK models for posaconazole and voriconazole as CYP3A inhibitors were built according to the publications by Hong and Li et al., respectively. For the posaconazole–tacrolimus DDI study, posaconazole was administered orally at a dose of 400 mg twice daily for 7 days, and a single oral dose of tacrolimus 0.05 mg/kg was administered on day 7. For the voriconazole–tacrolimus DDI, voriconazole was administered orally at a dose of 400 mg twice daily for the first day, followed by 200 mg twice daily for the next 6 days, and a single oral dose of tacrolimus 0.1 mg/kg was administered on day 7.
To quantify the DDIs, the geometric mean ratios of AUC or Cmax in the presence or absence of CYP3A modulators were determined. The assessment of the DDI prediction success was based on whether predictions fell within a twofold range of the observed data.

[3] = Clinical case series: tacrolimus trough levels before and after starting ETI in CF lung transplant recipients; assay type: in vivo, human
Description: This was an IRB-approved, retrospective, single-center cohort study that reviewed all CF lung transplant recipients prescribed ETI post lung transplantation. Patients were included if they were 18 years of age or older with CF, with at least one F508del mutation/minimal function genotype or a mutation in the CFTR gene that is responsive to ETI based on in vitro data. To evaluate the impact of ETI on tacrolimus exposure, tacrolimus trough levels were recorded before and up to one month after starting ETI. Patients had to be clinically stable, with no significant changes in health status, or initiating new medications known to modulate CYP3A4 and/or P-gp one month before or after starting ETI. Patients lost to follow-up or with missing tacrolimus trough levels were excluded.
Collected data included age, sex, weight, baseline lung function, body mass index, CFTR genotype, additional comorbidities, transplant and ETI start dates, ETI and tacrolimus dosing regimens, concurrent CYP3A4 modulators, and tacrolimus blood levels.
Baseline lung function was defined as the highest forced expiratory volume in one second (FEV1) during the year prior to initiating ETI therapy, obtained from routine pulmonary function tests. Percent predicted FEV1 (ppFEV1) was then extrapolated using the Global Lung Function Initiative 2012 prediction equation [35]. Tacrolimus troughs were measured through routine clinical laboratory blood draws and analyzed by validated immunoturbidometric protocols. To assess the effects of ETI, tacrolimus doses and concentrations within one month before and after ETI start were recorded. The steady state for tacrolimus and ETI were estimated to be attained within four to five half-lives after starting a regimen. Tacrolimus troughs were recorded at least 2–3 days after a dose change and 5–6.5 days post ETI initiation, based on elexacaftor’s longest half-life of the three CFTR modulators. Furthermore, to explore potential variability in the adherence to therapy and the timing of blood draws, tacrolimus trough levels within one month post ETI were averaged. For two patients with a changed tacrolimus dose immediately prior to ETI initiation and without a corresponding trough level, we captured the next most recent dose and trough within a three-month period.
All statistical analyses were performed using GraphPad version 8.0.2, with a two-sided significance value of 0.05.

[4] = cited from earlier work
CYP3A5 = test system: CYP3A5; set-up: method as in Dai et al. [23]; settings: ref Dai et al. [23], cited from earlier work
[5] = ref Gertz et al. [21]; cited from earlier work
[6] = ref Gertz et al. [21]; cited from earlier work; remark: listed apart in the source
[7] = cited from earlier work; remark: listed apart in the source
[8] = PBPK simulation of plasma or blood pharmacokinetics (Simcyp); settings: single dose oral or intravenous, Cmax and AUC
Description: The PBPK models were implemented within the Simcyp Simulator (version 21; Certara, Sheffield, UK). To mimic the CF population, the distribution of ages and proportion of females were corrected to reflect the demographics of the CF population in the default healthy population library file (Sim-Healthy volunteers) provided in Simcyp® [18]. […] Further, the proportion of females was adjusted from 0.32 in the healthy population to 0.48 in CF. For the trial design, we used a population size of 100 (10 trials with 10 subjects in each trial).
Ivacaftor was orally administered under fed conditions to mimic the clinical setting, where a fat-containing food is required for optimal absorption. The simulated data were qualified using the plasma PK data observed in an adult CF population [11].
The whole-blood PK profiles of tacrolimus following single-dose administration (0.05 mg/kg oral or 0.01 mg/kg iv infusion for 4 h) were simulated to verify the performance of the tacrolimus model. Tacrolimus was administered under fasted conditions to mimic the clinical study. The simulated data were qualified using the blood PK data observed in a healthy adult population [24].
The prediction accuracies for the area under the curve (AUC) and maximum plasma concentration (Cmax) values were calculated as a ratio of mean observed over mean predicted values. […]

CYP3A [9] = settings: cited from earlier work
Caco-2 cell = test system: Caco-2 cell; set-up: method as in Gertz et al. [22]; settings: ref Gertz et al. [22]; cited from earlier work
[10] = blood, healthy adults, cited from earlier work
CYP3A [11] = test system: CYP3A; set-up: method as in earlier work; settings: cited from earlier work
[12] = individual patients 1–13, dose normalized
[13] = tacrolimus 0.05 mg/kg single dose oral
[14] = tacrolimus 0.1 mg/kg single dose iv infusion (4 h)
[15] = victim drug +/− ivacaftor 150 mg oral twice daily, healthy volunteers

AUC Ratio, Ratio (Simulated/Observed) (CYP3A [2]; tacrolimus +/− posaconazole): 0.98 | Cmax Ratio, Ratio (Simulated/Observed) (CYP3A [2]; tacrolimus +/− posaconazole): 1.20 | AUC Ratio, Ratio (Simulated/Observed) (CYP3A [2]; tacrolimus +/− voriconazole): 1.07 | Cmax Ratio, Ratio (Simulated/Observed) (CYP3A [2]; tacrolimus +/− voriconazole): 1.00 | predicted AUC and Cmax ratio relative to the observed values (CYP3A [2]; tacrolimus model as victim, DDIs with posaconazole or voriconazole): 0.98 to 1.20 | TAC DN Trough Level, Post-ETI, Median ([3]; N = 13 cohort): 96.12 ng/mL per mg/kg/day | TAC DN Trough Level, Pre-ETI, Median ([3]; N = 13 cohort): 73.41 ng/mL per mg/kg/day | TAC Trough Concentration, Post-ETI, Median ([3]; N = 13 cohort): 9.05 ng/mL | TAC Trough Concentration, Pre-ETI, Median ([3]; N = 13 cohort): 7.50 ng/mL | Percent Difference DN Trough, Median (increase after starting ETI) ([3]; N = 13 cohort, p = 0.0479): 32% | increase in tacrolimus DN trough levels ([3]; patients on a full dose of ETI): 32% | increase in tacrolimus DN trough levels ([3]; subgroup of 4 patients on CYP3A4 modulators and reduced ETI dose): 22% | ratio of the predicted to observed PK parameters [8]: 0.8–1.3
SMILES: C=CC[C@@H]1/C=C(\C)C[C@H](C)C[C@H](OC)[C@H]2O[C@@](O)(C(=O)C(=O)N3CCCC[C@H]3C(=O)O[C@H](/C(C)=C/[C@@H]3CC[C@@H](O)[C@H](OC)C3)[C@H](C)[C@@H](O)CC1=O)[C@H](C)C[C@@H]2OC [tacrolimus]
CYP3A4 Vmax (CYP3A4; 12-hydroxylation): 0.6 pmol/min/pmol CYP | Km (CYP3A4; 12-hydroxylation): 0.29 µM | CYP3A4 Vmax (CYP3A4; 13-O-desmethylation): 8 pmol/min/pmol CYP | Km (CYP3A4; 13-O-desmethylation): 0.21 µM | ka (absorption rate constant) ([1]; first-order absorption model): 3.68 h⁻¹ | kin ([1]; minimal PBPK model): 0.68 h⁻¹ | kout ([1]; minimal PBPK model): 0.10 h⁻¹ | Lag time [1]: 0.43 h | Vsac (single adjusted compartment volume) [1]: 10.8 L/kg | fa (fraction available from dosage form) [1]: 1.0 | TAC Trough Concentration, Post-ETI ([3]; individual patients 1–13, averaged within one month post ETI): 9.50 ng/mL and 3.40 ng/mL and 8.90 ng/mL and 6.10 ng/mL and 5.58 ng/mL and 6.70 ng/mL and 9.05 ng/mL and 15.70 ng/mL and 14.10 ng/mL and 9.75 ng/mL and 9.73 ng/mL and 8.45 ng/mL and 11.30 ng/mL | Percent Difference DN Trough ([3]; individual patients 1–13, post- vs pre-ETI): 62.10% and −57.76% and 30.93% and −6.95% and −47.69% and 35.60% and 53.90% and 125.51% and 74.90% and 65.49% and 32.22% and −21.64% and 13.23% | TAC Trough Concentration, Pre-ETI ([3]; individual patients 1–13, within one month before ETI start): 5.60 ng/mL and 7.30 ng/mL and 7.10 ng/mL and 6.60 ng/mL and 11.40 ng/mL and 6.90 ng/mL and 8.40 ng/mL and 7.70 ng/mL and 7.50 ng/mL and 10.40 ng/mL | TAC DN Trough Level, Post-ETI [3, 12]: 245.10 ng/mL per mg/kg/day and 19.30 ng/mL per mg/kg/day and 96.12 ng/mL per mg/kg/day and 101.40 ng/mL per mg/kg/day and 42.88 ng/mL per mg/kg/day and 62.88 ng/mL per mg/kg/day and 68.78 ng/mL per mg/kg/day and 162.86 ng/mL per mg/kg/day and 82.64 ng/mL per mg/kg/day and 451.10 ng/mL per mg/kg/day and 193.04 ng/mL per mg/kg/day and 54.29 ng/mL per mg/kg/day and 454.83 ng/mL per mg/kg/day | TAC DN Trough Level, Pre-ETI [3, 12]: 151.20 ng/mL per mg/kg/day and 45.68 ng/mL per mg/kg/day and 73.41 ng/mL per mg/kg/day and 108.97 ng/mL per mg/kg/day and 81.98 ng/mL per mg/kg/day and 46.37 ng/mL per mg/kg/day and 44.69 ng/mL per mg/kg/day and 72.22 ng/mL per mg/kg/day and 47.25 ng/mL per mg/kg/day and 272.58 ng/mL per mg/kg/day and 146.00 ng/mL per mg/kg/day and 69.29 ng/mL per mg/kg/day and 401.70 ng/mL per mg/kg/day | oral bioavailability [4]: < 20% | bioavailability ([4]; significantly affected by the presence of food): 5–93% | CYP3A5 Vmax (CYP3A5; 12-hydroxylation): 1.4 pmol/min/pmol CYP | Km (CYP3A5; 12-hydroxylation): 0.35 µM | CYP3A5 Vmax (CYP3A5; 13-O-desmethylation): 17 pmol/min/pmol CYP | Km (CYP3A5; 13-O-desmethylation): 0.21 µM | Compound type [5]: Neutral | Log Po:w [5]: 3.3 | B/P (blood-to-plasma ratio) [6]: 35 | dose excreted unchanged in urine [7]: less than 1% | unchanged tacrolimus as share of total radioactivity excreted in feces ([7]; in vivo): less than 1% | AUC ratio (CYP3A [9]; co-administration with posaconazole 400 mg twice daily): 4.58 | AUC Ratio, Observed GMR (90% CI) (CYP3A [9]; tacrolimus +/− posaconazole): 4.5 (4.0, 5.2) | Cmax Ratio, Observed GMR (90% CI) (CYP3A [9]; tacrolimus +/− posaconazole): 2.0 (2.0, 2.4) | AUC Ratio, Observed GMR (90% CI) (CYP3A [9]; tacrolimus +/− voriconazole): 3.0 (2.7, 3.8) | Cmax Ratio, Observed GMR (90% CI) (CYP3A [9]; tacrolimus +/− voriconazole): 2.0 (1.9, 2.5) | increase of tacrolimus concentration (CYP3A [9]; with clarithromycin, despite a 64% reduction in the tacrolimus dose): fourfold | Caco-2 permeability (Caco-2 cell): 13.1 10^−6 cm/s | Observed AUC (0–108 h) (mean) [10, 13]: 307 ng·h/mL | Observed Cmax (mean) [10, 13]: 37.8 ng/mL | Observed AUC (0–264 h) (mean) [10, 14]: 378 ng·h/mL | Observed Cmax (mean) [10, 14]: 21.4 ng/mL

SMILES: CC(C)(CO)c1cc2cc(NC(=O)C3(c4ccc5c(c4)OC(F)(F)O5)CC3)c(F)cc2n1C[C@@H](O)CO [tezacaftor]
effect on the activity of CYP3A (CYP3A [11]): no significant effect

AUC Ratio, Ratio (Simulated/Observed) (CYP3A [2]; victim drug +/− ivacaftor): 1.07 | Cmax Ratio, Ratio (Simulated/Observed) (CYP3A [2]; victim drug +/− ivacaftor): 0.91
SMILES: C#C[C@]1(O)CC[C@H]2[C@@H]3CCc4cc(O)ccc4[C@H]3CC[C@@]21C [ethinylestradiol]
AUC Ratio, Observed GMR (90% CI) (CYP3A [9]; [15]): 1.07 (1.00, 1.14) | Cmax Ratio, Observed GMR (90% CI) (CYP3A [9]; [15]): 1.22 (1.10, 1.36)
